Data taken from US10500179B2, “Glycine for use in tolerance induction in allergic patients” (N. V. Nutricia, priority 2015, dated 2019).

Legend:
[1] = test system: human peripheral blood mononuclear cells (PBMCs); test: LPS induced TNF-α synthesis by human PBMCs (ELISA); assay type: cell-based; conditions: FIG. 3
Source text: The next experiment done by the inventor relates to the question whether amino acids are able to enhance immune effects of free glycine. To investigate this, human peripheral blood mononuclear cells (PBMCs) were stimulated with lipopolysaccharide (LPS) in the presence of free glycine in combination with different levels of free glutamine In short: Human PBMCs were obtained from buffy coats supplied by the blood bank and prepared by Ficoll gradient centrifugation according to standard methods. The recovered PBMCs were washed with PBS and cultured in RPMI-1640 containing, penicillin, streptomycin and 5% Fetal call serum (FCS), 1.5E5 cells/well (96-wells culture plate). The cells were stimulated with LPS (E. coli, 055:B5, 10 ng/ml) for 20 hr after 1 hr pre-incubation with different levels of glycine in combination with different levels of glutamine. The tested levels of glycine and glutamine were also tested separately. TNF-α levels were detected in the supernatant of the cells using an ELISA kit.

[2] = test system: Female C3H/HeOuJ mice sensitized against bovine whey protein; conditions: oral gavage 50 or 100 mg/mouse 24 and 4 hours before sensitization
RBL-2H3 cells = conditions: glycine concentration series from 500 μg/ml, 20 hours incubation, concentration dependent
Method: RBL-2H3 cells were sensitized by 100 ng/ml mouse IgE α-dinitrophenyl in culture medium (DMEM with 10% FBS and 1% penicillin/[…]) and plate out 100 μl/well in a 96-well flat bottom plate. After 18 hrs of culturing at 37° C. with 5% CO2, the cells were washed 4 times with 200 μl Tyrode's buffer (130 mM NaCl, […], 1.4 mM CaCl2, 1 mM MgCl2, 5.6 mM glucose, 10 mM HEPES, and 0.1% bovine serum albumin in distilled water, pH 7.4). 25 μl glycine in a concentration series starting form 500 μg/ml and diluted 1:1 in Tyrode's buffer (component), 25 μl Tyrode's buffer (controls) or 25 μl quercetin 100 μM (positive control) were added to the cells. 25 μl of DNP-BSA (100 ng/ml) and 50 μl Tyrode's buffer were added to each component well. After 20 hours incubation at 37° C. with 5% CO2 90 μl of the cells supernatant was collected and stored at −80° C. for cytokine analysis by multiplex bead immunoassay.

| Compound | LPS induced TNF-α synthesis by PBMCs ([1]; LPS 10 ng/ml for 20 hr after 1 hr pre-incubation) | allergic skin response (ear swelling) after intradermal whey injection ([2]; effect concentration dependent, FIG. 2A) | mMCP1 release (by intestinal mast cells) after an oral allergen challenge ([2]; serum one hour after 50 mg whey oral challenge, FIG. 2B) | production of whey-specific IgE ([2]; serum, ELISA, FIG. 2C) | crosslinking induced TNFα production (RBL-2H3 cells; FIG. 1A) | crosslinking induced IL-4 production (RBL-2H3 cells; FIG. 1B) | crosslinking induced IL-13 production (RBL-2H3 cells; FIG. 1C) | effect of glutamine on glycine inhibition of LPS induced TNF-α synthesis ([1]; glutamine combined with glycine at specific ratios, LPS 10 ng/ml 20 hr) |
| --- | --- | --- | --- | --- | --- | --- | --- | --- |
| NCC(=O)O [Glycine, glycine] | inhibited | inhibits the allergy development | inhibits allergy development | inhibits | inhibits | inhibits | inhibits | – |
| NC(=O)CC[C@H](N)C(=O)O [glutamine] | – | – | – | – | – | – | – | enhanced this effect synergistically |
